Assay in all cases: NCI anticancer screen, dose series, 48 h
The test system of test [1] is KM20L2 colon.
Test [2] relates to HOP-18 NSCLC.
The test system of test [3] is DMS 273 small cell lung.
In test [4] the test system is DMS 114 small cell lung.
Test [5] relates to XF 498 CNS.
Test [6] has as its system M19-MEL melanoma.
In test [7] the test system is MDA-N.
For test [8], the system named is HS 578T breast.
In test [9] the test system is RXF-631 renal.

The values below come from PubChem BioAssay (NCI).

Molecules are shown by their SMILES.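 Compound exposure: 48 hours, 5 concentrations, 96-well plates. GI50 = concentration required for 50% inhibition of growth. TGI is the concentration that stops growth completely.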

Take `C1C[OH+]CC[OH+]CCNCC[OH+]CC[OH+]CCN1.N.[Cl-].[Pt+4]`: the GI50 in [1] is 30.3 µM; in [2], 19.9 µM; in [3] it was 2.87 µM. The values for the TGI in [1], in test [2] and in test [3] were above 100 µM, above 100 µM and 15.7 µM, respectively.

With `N#C/C(=C\c1ccc(O)c(O)c1)C(N)=S`, the TGI in test [4], in test [1], in test [5], in test [6], in [2] and in test [3] was above 100 µM each time.

Take `COc1ccc2nc(-c3cccs3)cc(C(O)CN3CCSCC3)c2c1` (stereo not given): the TGI in test [4] came out at 38.7 µM; in test [1], 45.5 µM; in test [5], 32.1 µM; in test [6], 58.6 µM; in test [2], 54.7 µM; in test [3], 40 µM.

Turning to `CCCCCCCCCCC(C(=O)O)C1(C(=O)O)CCC(=O)O1` (stereo not given), the TGI in test [7] and in test [8] was above 100 µM in each case.

For the molecule `COc1ccc(/C=C(/C#N)C(N)=O)cc1OC`, the TGI in test [7] and in test [8] was above 100 µM each time.

Consider `NNC(=O)/C(=C/c1ccc(Cl)cc1Cl)NC(=O)c1ccccc1`, for which the TGI in test [4], in [5], in test [6], in test [2] and in test [3] was above 100 µM in each case.

For `O=c1/c(=C/c2ccccc2F)sc2nc3ccccc3n12`, the TGI in test [4], in test [1], in test [9], in test [5], in test [6] and in [3] was above 100 µM in each case.

For `O=C(/C=C/c1ccccc1)c1cc(Br)ccc1O`, the TGI in [7] stood at 33.3 µM; in test [8] it was 59.3 µM.

As for `O=[N+]([O-])C1C2C=CC(C2)[C@H]1c1ccco1` (stereo not given in full), the TGI in test [4], in test [1], in test [5], in [6] and in test [3] was above 100 µM throughout.

Consider `COC(C(=O)[O][Ge]([CH3])([CH3])[CH3])c1ccccc1` (stereo not given), for which the GI50 in [4], in test [1], in test [9] and in test [6] was above 100 µM throughout. The TGI in test [4], in [1], in test [9] and in test [6] was above 100 µM each time.

Consider `CC1C=C(OC(=O)c2ccccc2)C(=O)C(n2cc(F)c(=O)[nH]c2=O)O1` (stereo not given), for which the TGI in test [4], in test [1], in test [5], in test [6], in [2] and in test [3] was above 100 µM in each case.

For the molecule `CCN(CC)c1ccc(C(=O)c2ccccc2C(=O)O)c(O)c1`, the TGI in [4], in [5], in test [6] and in test [3] was above 100 µM throughout.

`CCCC(=O)OC1C(C(O)CO)OC2OC(C)(C)OC21` (stereo not given): the TGI in test [4], in test [1], in test [5], in test [6], in test [2] and in [3] was above 100 µM each time. In addition, the TGI in test [7] and in [8] was above 100 µM throughout.

For `C/C(=N\NS(=O)(=O)c1ccccc1)c1ccc(Cl)c(Cl)c1`, the TGI in test [4], in test [1], in test [5], in test [6], in test [2] and in [3] was above 100 µM throughout.

Turning to `CC1OC(O[C@@H]2OC=C(C=O)[C@@]3(O)CC[C@H](C)[C@@H]23)C(O)C(O)C1O` (stereo not given in full), the TGI in test [7] and in test [8] was above 100 µM throughout.

As to `Cc1c(C(=O)C/C(=N\O)C(=O)Nc2cc(Cl)c(Cl)cc2Cl)[n+](=O)c2ccccc2n1[O-]`, the TGI in test [4] turned out to be 19.9 µM; in [1] it was 41.4 µM; in test [5], 46.8 µM; in test [6] it was 5.1 µM; in [2] it was 82.4 µM; in test [3], 38 µM.

On to `CCCNC1=C(C(=O)OCC)C(=O)CO1`, for which the TGI in test [4], in test [1], in test [9], in [5], in [6] and in test [3] was above 100 µM in each case.

Regarding `Cc1ccc(NC(=O)C(=O)C(C#N)c2ccccc2C)cc1C` (stereo not given), the TGI is above 59.2 µM in test [4]; above 100 µM in test [1]; above 100 µM in [5]; above 100 µM in test [2]; above 100 µM in test [3].

Regarding `O=C(N/C(=C\c1ccc2c(c1)OCO2)c1nc2ccccc2[nH]1)c1ccccc1`, the TGI in test [4] was 6.08 µM; in test [1], above 89.7 µM; in test [5], 34 µM; in test [6] it was 19.8 µM; in test [2], above 100 µM; in test [3], above 100 µM.

Consider `CCOC(=O)c1c2c(n3ccccc13)C(=O)c1ccccc1C2=O`, for which the TGI in test [7] and in [8] was above 100 µM in each case.

With `COc1ccc(OC)c(NC(=O)C2=C(C)NC(C)=C(C(=O)Nc3cc(OC)ccc3OC)C2c2ccccc2)c1`, the TGI in [4], in [1], in [6], in [2] and in [3] was above 100 µM in each case.

Take `CC(CCC(=O)O)[C@H]1CCC2[C@@H]3CC[C@@H]4CC(O)CC[C@]4(C)C3CC[C@@]21C` (stereo not given in full): in test [7], the GI50 is 60.6 µM and the TGI was above 100 µM.

`CC1=C(Oc2ccccc2)C(CCC(=O)O)c2c(O)cc(Cl)c(O)c21` (stereo not given): the TGI in [4], in test [1], in [9], in [5], in test [6] and in test [3] was above 100 µM each time.

As for `Cc1ccc(C(=O)c2nnc(C(=O)c3ccc(C)cc3)nn2)cc1`, the TGI was above 100 µM in [1], 61.5 µM in test [6], above 100 µM in [2] and above 100 µM in test [3].

As to `CC1=Nc2ccccc2S/C1=C(/C)NNC(=O)C(N)=O`, the TGI in test [4], in [1], in [5], in test [6], in test [2] and in [3] was above 100 µM throughout.

`CN(C)CCCNC(CC#N)CCC#N` (stereo not given): the TGI in test [7] and in test [8] was above 10 µM in each case.

On to `CC[C@@H](C(=O)O)C1CC[C@H](C)C([C@@H](C)[C@H](O)[C@H](C)C(=O)[C@H](CC)C2O[C@]3(C=C[C@@H](O)[C@]4(CC[C@@](C)(C5CC[C@](O)(CC)[C@H](C)O5)O4)O3)[C@H](C)C[C@@H]2C)O1` (stereo not given in full), for which, in test [8], the GI50 was 0.0767 µM and the TGI was 12.4 µM.

For the molecule `CC1=C(C)C(=O)c2c(cc3ccccn23)C1=O`, the TGI in [4] was found to be 26.9 µM; in test [9], 21.7 µM; in test [6], 4.42 µM; in [2] it was 68.2 µM; in [3], 32.2 µM.

Take `NCCOCCOCCNc1nc(Cc2ccccc2)nc(NCCCN2CCCC2=O)n1`: in [8], the GI50 is above 100 µM and the TGI is above 100 µM.

For the molecule `COc1cc(OC(C)=O)cc2c(OC(C)=O)ccc(OC(C)=O)c12`, the TGI in test [1] was above 100 µM.

Consider `COc1cc(C(=O)C/C(CCCC(=O)Nc2ccccc2[N+](=O)[O-])=N/NC(=O)c2cc3ccccc3cc2O)ccc1O`, for which the TGI in [1] is above 91.1 µM; in test [9] it was above 100 µM; in [5] it was above 100 µM; in [2] it was above 100 µM; in [3], 43.6 µM.

Take `COc1cccc(-n2ncc3c(N/N=C/c4ccc(C(=O)NCCN(C)C)cc4)ncnc32)c1`: in test [8], the GI50 was 0.57 µM and the TGI was 6 µM.

`N#Cc1c(N2CCCC2)[nH]c(=O)c(C(c2c(Cl)cccc2Cl)c2c(O)c(C#N)c(N3CCCC3)[nH]c2=O)c1O`: in test [8], the GI50 was 2.75 µM and the TGI is 19.1 µM.

Turning to `C[C@@H]1C[C@H]2CC[C@H](O2)[C@H](C)C(=O)O[C@@H](C)C[C@@H]2CC[C@@H](O2)[C@@H](C)C(=O)O[C@H](C)C[C@H]2CC[C@H](O2)[C@H](C)C(=O)O[C@@H](C)C[C@@H]2CC[C@@H](O2)[C@@H](C)C(=O)O1`, the TGI was above 100 µM in test [7] and 54.3 µM in [8].

In the case of `O=C(CN1CCOCC1)Nc1nc(-c2ccc(Cl)cc2)cs1`, the TGI in [4] was 65.8 µM; in test [5], 26.9 µM; in test [6], above 100 µM; in [2] it was above 100 µM; in [3], 41.8 µM.

In the case of `COC(=O)C(=O)C1(CCC(C)=O)c2ccccc2-c2c(C)ccc(C)c21` (stereo not given), the TGI in test [4], in test [1], in test [6], in test [2] and in test [3] was above 100 µM in each case.
